# Results published in paper PMC12036197, “Green synthesis of PEGylated iron oxide nanoparticles of Eriobotrya japonica leaves extract in combination with B3, against Plasmodium falciparum 3D7 strain” (Tropical Medicine and Health, 2025).
# Tests used:
# [1] = test system: Plasmodium falciparum 3D7; assay: Growth inhibition of Plasmodium falciparum 3D7 in RPMI 1640 culture medium, single drugs; format: cell-based; conditions: for Growth inhibition rate: highest growth inhibition, RPMI 1640, 24 h
# Procedure: Plates with a capacity of 4 ml or T25 culture flasks were employed for the cultivation of parasites. CCM culture medium and blood (to sustain a hematocrit of 10% within the culture medium for the proliferation and replication of the parasite) were supplemented into the dishes. […] Parasites were multiplied in a CCM medium containing 10% hematocrit with O + human erythrocyte and albumax (0.5%) serving as a growth factor. The culture plates were incubated at 37 °c in a candle jar, with the fresh medium being replenished every 48 h. A thin blood smear was prepared from the sediment collected from each plate, followed by the quantification of parasites on 10,000 red blood cells.
# To investigate the effect of drugs on the culture medium, two stages were conducted. The effect of the drug was performed when 80% of the parasites were in the ring stage and the parasitemia was 6%. […] In the first step, the drugs were treated separately and their IC50 was measured. For plant extract, dilutions of 100, 200, 400 and 800 µg/mL (dry extract) of culture medium were done in 12 wells of a 96-well plate (in triplicate).
# For polyethylene glycol, dilutions of 10, 100, 1000 and 10000 µg/mL of culture medium were done in 12 wells of a 96-well plate (in triplicate). For the nanoparticle produced by the PEGylated green synthesis method (PEG-HNPs) dilutions of 50, 100, 200, and 400 µg/mL culture medium were done in 12 wells of 96-well plates (in triplicate). In the second step, the effect of the IC50 combination of drugs with each other was investigated by the Fix ratio method on the culture medium. In this way, the percentage ratio of 0, 10, 30, 50, 70, 90, and 100 of one drug was combined with another drug and it was given an effect on the culture medium, and their synergistic and antagonistic effect was investigated by affecting the amount of parasitemia. Negative control consisted of 15 μL of freshly washed RBC plus 85 μL of CCM. […] Statistical analysis was done using GraphPad prism9 software and the results were analyzed with one-way ANOVA. […]
# [2] = test system: red blood cells; assay: Hemolytic test; format: cell-based, human; conditions: 3 h incubation
# Procedure: To conduct the hemolytic test on the hydroalcoholic extract of […], nicotinamide, and green-synthesized nanoparticles, 5 mL of fresh whole blood with heparin anticoagulant was obtained from a healthy volunteer. After centrifugation and washing with PBS, 1% blood suspension was prepared. In each well of three microplates, 100 µL of the prepared blood was added. Subsequently, 100 µL of the hydroalcoholic extract, nicotinamide, and green-synthesized nanoparticles with concentrations of 0.1, 1, 10, 50, 100 and 200 µg/mL, were added into the second to seventh wells of all three microplates, respectively. The first wells served as negative controls, containing an equal volume of PBS, while the eighth wells were positive controls, containing 100 µL of Triton X-100. After 3 h of incubation and centrifugation, the optical absorbance of the supernatant was measured at a wavelength of 540 nm. The percentage of drug-induced hemolysis was calculated using the following formula [28]: Percenthemolysis%=ODtest-ODnegativecontrol/ODpositivecontrol-ODnegativecontrol×100.
# Investigating the hemolytic effect of Eriobotrya japonica hydroalcoholic extract (herbal extract), nicotinamide (NAM), and PEGylated green synthesized iron oxide nanoparticles (HNPs) on red blood cells at concentrations of 0.1, 1, 10, 50, 100 and 200 µg/mL were evaluated (Table 3). The optical absorbance of PBS was measured as negative control 0.01 and the optical absorbance of Triton X-100 was measured as positive control 1.00 (Fig. 5).
molecule,measurement,setting,value
"CCN(CC)CCCC(C)Nc1ccnc2cc(Cl)ccc12 (stereo not drawn) [CQ, chloroquine diphosphate]",inhibition at 8 µg/mL,"[1]; Plasmodium falciparum, 3D7, 24 h, read-out: Growth inhibition rate",95%
polyethylene glycol 600 [PEG],Growth inhibition rate,[1]; concentration 10000 µg/ml,71%
"NC(=O)c1cccnc1 [NAM, nicotinamide]",Percentage of drug hemolysis,[2]; drug concentration 0.1 µg/mL,1%
same,Percentage of drug hemolysis,[2]; drug concentration 1 µg/mL,2%
same,Percentage of drug hemolysis,[2]; drug concentration 10 µg/mL,4%
same,Percentage of drug hemolysis,[2]; drug concentration 50 µg/mL,6%
same,Percentage of drug hemolysis,[2]; drug concentration 100 µg/mL,8%
same,Percentage of drug hemolysis,[2]; drug concentration 200 µg/mL,9%
same,Growth inhibition rate,[1]; concentration 3000 µg/ml,94%
